# According to article PMC12042115 (mLife, 2025):
# Like-named read-outs stand apart in the source and are kept apart here.
# Tested on: wild‐type BCG cells
# Type: cell-based, M. bovis BCG
# Conditions: for Mean_Ratio GDI5755_3d: DMSO_3d: Table S6; for Mean Ratio: GDI5755_2d vs DMSO_2d; for Mean Ratio / Mean Ratio (GDI5755_2d vs DMSO_2d): up-regulated; for Mean_Ratio (GDI5755_3d vs DMSO_3d): down-regulated, 3 d; for Mean Ratio (GDI5755_2d vs DMSO_2d): 2d
smiles,measurement,setting,value
O=C(Oc1ccc(Cl)cc1)c1ccc(N2CCOCC2)c([N+](=O)[O-])c1 [GDI‐5755],Mean_Ratio GDI5755_3d: DMSO_3d,BCG_1101c Serine protease,1.4
same,Mean_Ratio GDI5755_3d: DMSO_3d,BCG_1189c HNH nuclease domain-containing protein,1.3
same,Mean_Ratio GDI5755_3d: DMSO_3d,BCG_1283 Probable serine protease htrA,1.3
same,Mean_Ratio GDI5755_3d: DMSO_3d,BCG_1324 Uncharacterized protein,1.3
same,Mean_Ratio GDI5755_3d: DMSO_3d,BCG_1333 Lipoprotein lprB,1.3
same,Mean_Ratio GDI5755_3d: DMSO_3d,BCG_1334 Lipoprotein lprC,1.3
same,Mean_Ratio GDI5755_3d: DMSO_3d,BCG_1438c Transferase,1.3
same,Mean_Ratio GDI5755_3d: DMSO_3d,BCG_1471c Probable triacylglyceride transporter,1.3
same,Mean_Ratio GDI5755_3d: DMSO_3d,BCG_1492 Conserved membrane protein,1.3
same,Mean_Ratio GDI5755_3d: DMSO_3d,BCG_1523 Fe-S cluster assembly protein SufD,1.3
same,Mean_Ratio GDI5755_3d: DMSO_3d,BCG_1532 Thioredoxin,1.3
same,Mean_Ratio GDI5755_3d: DMSO_3d,BCG_1543 UPF0353 protein,1.3
same,Mean_Ratio GDI5755_3d: DMSO_3d,BCG_1787 DUF4129 domain-containing protein,1.4
same,Mean_Ratio GDI5755_3d: DMSO_3d,BCG_1890c NADH dehydrogenase ndh,1.5
same,Mean_Ratio GDI5755_3d: DMSO_3d,BCG_1937 Thiamine-binding protein-containing protein,1.3
same,Mean_Ratio GDI5755_3d: DMSO_3d,BCG_1984 HNH nuclease domain-containing protein,1.3
same,Mean_Ratio GDI5755_3d: DMSO_3d,BCG_2183c Transcriptional regulator MraZ,1.3
same,Mean_Ratio GDI5755_3d: DMSO_3d,BCG_2241c Serine protease Hip1,1.3
same,Mean_Ratio GDI5755_3d: DMSO_3d,BCG_2351c Probable lipoprotein lppP,1.3
same,Mean_Ratio GDI5755_3d: DMSO_3d,BCG_2486c DSBA-like thioredoxin domain-containing protein,1.7
same,Mean_Ratio GDI5755_3d: DMSO_3d,BCG_2516c pyruvate dehydrogenase E1 component pdhB,1.3
same,Mean_Ratio GDI5755_3d: DMSO_3d,BCG_2656 Uncharacterized protein,1.4
same,Mean_Ratio GDI5755_3d: DMSO_3d,BCG_2721c DUF3039 domain-containing protein,1.4
same,Mean_Ratio GDI5755_3d: DMSO_3d,"BCG_2723 RNA polymerase sigma factor, sigB",1.3
same,Mean_Ratio GDI5755_3d: DMSO_3d,BCG_2934c Possible D-amino acid aminohydrolase,1.4
same,Mean_Ratio GDI5755_3d: DMSO_3d,BCG_3028 conserved lipoprotein lppZ,1.3
same,Mean_Ratio GDI5755_3d: DMSO_3d,BCG_3153c Diacylglycerol O-acyltransferase,1.4
same,Mean_Ratio GDI5755_3d: DMSO_3d,BCG_3164 Probable NADPH quinone oxidoreductase fadB4,1.2
same,Mean_Ratio GDI5755_3d: DMSO_3d,BCG_3165c Uncharacterized protein,1.3
same,Mean_Ratio GDI5755_3d: DMSO_3d,BCG_3185c Dioxygenase,2.2
same,Mean_Ratio GDI5755_3d: DMSO_3d,BCG_3269c Protein translocase subunit SecA 1,1.2
same,Mean_Ratio GDI5755_3d: DMSO_3d,BCG_3476 Probable dioxygenase,1.6
same,Mean_Ratio GDI5755_3d: DMSO_3d,BCG_3583 Acetoacetate decarboxylase,1.3
same,Mean_Ratio GDI5755_3d: DMSO_3d,BCG_3590 Rieske-type oxygenase,1.4
same,Mean_Ratio GDI5755_3d: DMSO_3d,BCG_3674c ATP-dependent zinc metalloprotease FtsH,1.3
same,Mean_Ratio GDI5755_3d: DMSO_3d,BCG_3709 Rv3651-like N-terminal domain-containing protein,1.3
same,Mean_Ratio GDI5755_3d: DMSO_3d,BCG_3824c Two-component transcriptional regulator TcrX,1.4
same,Mean_Ratio GDI5755_3d: DMSO_3d,BCG_3881 Uncharacterized protein,1.4
same,Mean_Ratio GDI5755_3d: DMSO_3d,BCG_3905c Glycerol phosphoryl diester phosphodiesterase glpQ1,1.3
same,"Mean_Ratio (GDI5755_2d vs DMSO_2d), protein L-serine dehydratase","iTRAQ protein abundance ratio, 2 d treatment vs DMSO, sheet down-regulated, Protein_ID A0A0H3M0L9, Pvalue 5.14E-04",0.80
same,"Mean_Ratio (GDI5755_2d vs DMSO_2d), protein Endonuclease NucS","iTRAQ protein abundance ratio, 2 d treatment vs DMSO, sheet down-regulated, Protein_ID A0A0H3M5R4, Pvalue 4.43E-04",0.80
same,"Mean_Ratio (GDI5755_2d vs DMSO_2d), protein Trehalose 2-sulfotransferase","iTRAQ protein abundance ratio, 2 d treatment vs DMSO, sheet down-regulated, Protein_ID A0A0H3M7Q0, Pvalue 1.60E-03",0.80
same,"Mean_Ratio (GDI5755_2d vs DMSO_2d), protein DUF3263 domain-containing protein","iTRAQ protein abundance ratio, 2 d treatment vs DMSO, sheet down-regulated, Protein_ID A0A0H3M274, Pvalue 5.23E-03",0.80
same,"Mean_Ratio (GDI5755_2d vs DMSO_2d), protein Translation initiation factor IF-3","iTRAQ protein abundance ratio, 2 d treatment vs DMSO, sheet down-regulated, Protein_ID A0A0H3MDG6, Pvalue 1.81E-05",0.80
same,"Mean_Ratio (GDI5755_2d vs DMSO_2d), protein Possible conserved membrane or exported protein","iTRAQ protein abundance ratio, 2 d treatment vs DMSO, sheet down-regulated, Protein_ID A0A0H3MDQ9, Pvalue 5.91E-05",0.80
same,"Mean_Ratio (GDI5755_2d vs DMSO_2d), protein Large ribosomal subunit protein uL22","iTRAQ protein abundance ratio, 2 d treatment vs DMSO, sheet down-regulated, Protein_ID A1KGI7, Pvalue 5.54E-04",0.80
same,"Mean_Ratio (GDI5755_2d vs DMSO_2d), protein ATP-dependent Clp protease ATP-binding subunit ClpX","iTRAQ protein abundance ratio, 2 d treatment vs DMSO, sheet down-regulated, Protein_ID A1KLF3, Pvalue 2.57E-03",0.80
same,Mean Ratio,protein A0A0G2Q9F2 Ribonuclease P protein component,1.26
same,Mean_Ratio (GDI5755_3d vs DMSO_3d),"protein A0A0G2Q9J9, BCG_3329c (Rv3300c), Pseudouridine synthase RsuA/RluA-like domain-containing protein",0.7
same,Mean_Ratio (GDI5755_3d vs DMSO_3d),"protein A0A0G2Q9N9, BCG_0021 (Rv3915), N-acetylmuramoyl-L-alanine amidase CwlM",0.7
same,Mean Ratio,protein A0A0H3M0K6 Probable conserved transmembrane protein,1.32
same,Mean Ratio,protein A0A0H3M0R3 Secreted antigen 85-c fbpC (85C),1.28
same,Mean Ratio (GDI5755_2d vs DMSO_2d),protein A0A0H3M1A8 Isoniazid inductible gene protein iniC,1.34
same,Mean_Ratio (GDI5755_3d vs DMSO_3d),"protein A0A0H3M1E3, BCG_0162 (Rv0128), Probable conserved transmembrane protein",0.7
same,Mean Ratio (GDI5755_2d vs DMSO_2d),protein A0A0H3M1F5 DUF427 domain-containing protein,1.39
same,Mean Ratio,protein A0A0H3M1G0 Possible conserved lipoprotein lpqK,1.28
same,Mean_Ratio (GDI5755_3d vs DMSO_3d),"protein A0A0H3M1I3, BCG_0204 (Rv0167), Conserved hypothetical integral membrane protein yrbE1A",0.7
same,Mean_Ratio (GDI5755_3d vs DMSO_3d),"protein A0A0H3M1V2, BCG_0591c (Rv0547c), Possible oxidoreductase",0.757
same,Mean Ratio,protein A0A0H3M1X4 Probable dehydrogenase/reductase,1.28
same,Mean Ratio,protein A0A0H3M1Z8 Isoniazid inductible gene protein iniA,1.28
same,Mean Ratio,protein A0A0H3M2A5 Carboxymuconolactone decarboxylase-like domain-containing protein,1.25
same,Mean Ratio,protein A0A0H3M2D4 Possible conserved transmembrane protein,1.26
same,Mean_Ratio (GDI5755_3d vs DMSO_3d),"protein A0A0H3M2J1, BCG_0913c (Rv0861c), DNA helicase",0.746
same,Mean_Ratio (GDI5755_3d vs DMSO_3d),"protein A0A0H3M2K9, BCG_0627 (Rv0582), Ribonuclease VapC",0.74
same,Mean_Ratio (GDI5755_3d vs DMSO_3d),"protein A0A0H3M2L9, BCG_0933 (Rv0881), Possible rRNA methyltransferase",0.7
same,Mean_Ratio (GDI5755_3d vs DMSO_3d),"protein A0A0H3M2M6, BCG_0648c (Rv0602c), Two component DNA binding/Transcriptional regulatory protein tcrA",0.7
